Test results reported in patent US6875578B2, “System for cell-based screening” (priority 1997, dated 2005).
Entries after “also recorded” stand apart in the source; their conditions may differ.

Key:
caspase-3 = test: Caspase-3 biosensor apoptosis assay, MCF-7 cells; format: cell-based; settings: MCF-7 cells transfected with the caspase 3 biosensor
Method: For DNA transfection, BHK cells and MCF-7 cells were cultured to 50-70% confluence in 6 well plates containing 3 ml of minimal Eagle's medium (MEM) with 10% fetal calf serum, 1 mM L-glutamine, 50 μg/ml streptomycin, 50 μg/ml penicillin, 0.1 mM non-essential amino acids, 1 mM sodium pyruvate and 10 μg/ml of bovine insulin (for MCF-7 cell only) at 37° C. in a 5% CO2 incubator for about 36 hours. The cells were washed with serum free MEM media and incubated for 5 hours with 1 ml of transfection mixture containing 1 μg of the appropriate plasmid and 4 μg of lipofectimine (BRL) in the serum free MEM media. Subsequently, the transfection medium was removed and replaced with 3 ml of normal culture media. The transfected cells were maintained in growth medium for at least 16 hours before performing selection of the stable cells based on standard molecular biology methods (Ausubel. et al 1995).
For apoptosis assays, the cells (BHK, MCF-7) stably transfected with the appropriate protease biosensor expression vector were plated on tissue culture treated 96-well plates at 50-60% confluence and cultured overnight at 37° C., 5% CO2. Varying concentrations of cis-platin, staurosporine, or paclitaxel in normal culture media were freshly prepared from stock and added to cell culture dishes to replace the old culture media. The cells were then observed with the cell screening system of the present invention at the indicated time points either as live cell experiments or as fixed end-point experiments.
This biosensor is restricted to the cytoplasm by the reactant target sequence. The reactant target sequence is the annexin II cytoskeletal binding domain ([…]) (SEQ ID NO:124) (FIG. 29C) (Eberhard et al. 1997. Mol. Biol. Cell 8:293a). The enzyme recognition site corresponds to two copies of the amino acid sequence DEVD (SEQ ID NO:60) (FIG. 29B), which serves as the recognition site of caspase-3. […]
The biosensor response is measured by quantitating the effective cytoplasm-to-nuclear translocation of the signal (see above). […]

BHK cells = test: Apoptosis nuclear morphology, BHK cells; format: cell-based; settings: 30 hours
Method: Cells were plated into 96-well plates at densities of 3×10^3 to 1×10^4 cells/well. The following day apoptotic inducers were added at indicated concentrations and cells were incubated for indicated time periods (usually 16-30 hours). The next day medium was removed and cells were stained with 5 μg/ml Hoechst (Molecular Probes, Inc.) in fresh medium and incubated for 30 minutes at 37° C. Cells were washed in Hank's Balanced Salt Solution (HBSS) and fixed with 3.7% formaldehyde in HBSS at room temperature. Cells were washed 2×with HBSS at room temperature and the plate was sealed.
Quantitation of changes in nuclear morphology upon induction of apoptosis was accomplished by (1) measuring the effective size of the nuclear region; and (2) measuring the degree of convolution of the perimeter.

MCF-7 cells = test: Apoptosis actin reorganization (f-actin content), MCF-7 cells; format: cell-based; settings: 30 hours
Method: (§1) Cells were plated in 96-well plates at densities of 3×10^3 to 1×10^4 cells/well. The following day apoptotic inducers were added at indicated concentrations. Cells were incubated for the indicated time periods (usually 16-30 hours). The next day the medium was removed and cells were stained with 5 μg/ml Hoechst (Molecular Probes, Inc.) in fresh medium and incubated for 30 minutes at […]. Cells were washed in HBSS and fixed with 3.7% formaldehyde in HBSS at room temperature. Plates were washed with HBSS and permeabilized with 0.5% v/v Triton X-100 in HBSS at room temperature. Plates were washed in HBSS and stained with 100 μl of 1 U/ml of Alexa 488 Phalloidin stock (100 μl/well, Molecular Probes, Inc.). Cells were washed 2×with HBSS at RT and the plate was sealed.
(§2) Quantitation of f-actin content was accomplished by measuring the intensity of phalloidin staining around the nucleus. This was determined to be a reasonable approximation of a full cytoplasmic average of the intensity. The mask used to approximate this cytoplasmic measure was derived from the nuclear mask defined by the Hoechst stain. Derivation was accomplished by combinations of erosions and dilations.

L929 cells = test: Apoptosis actin reorganization (f-actin content), L929 cells; format: cell-based, mouse; settings: 30 hours
Method: as §1, §2

SMILES: CC(=O)O[C@H]1C(=O)[C@@]2(C)[C@H]([C@H](OC(=O)c3ccccc3)[C@]3(O)C[C@H](OC(=O)[C@H](O)[C@@H](NC(=O)c4ccccc4)c4ccccc4)C(C)=C1C3(C)C)[C@]1(OC(C)=O)CO[C@@H]1C[C@@H]2O [paclitaxel]
- caspase activation reported by the biosensor (caspase-3): stimulated
- change in nuclear morphology (BHK cells): consistent increase in nuclear fragmentation with increasing concentrations; also recorded: a more classical response
- change in peri-nuclear f-actin content (MCF-7 cells): highly variable; also recorded: highly variable and not significant
- change in peri-nuclear f-actin content (L929 cells): dose-dependent increases in f-actin content
- change in peri-nuclear f-actin content (L929 cells; listed as Paclitaxel): graded increases in f-actin
